Experimental findings from patent US9260425B2 (Genetech, Inc., priority 2011, dated 2016) are described below.

In the experiment the target is Pim-1 (Homo sapiens (Human), UniProt P11309). Description: Pim kinase binding activity assay (Example 901), PIM-1 enzyme, Caliper microfluidic peptide phosphorylation. Format: biochemical. To be noted: 20 pM PIM-1, 10 μM ATP, 1 μM FAM-peptide, 90 minutes at room temperature. Here is the method:
Pim Kinase Binding Activity
A fluorescent-labeled Pim-specific peptide substrate, was custom synthesized by American Peptide Company (Sunnyvale, Calif.). Reaction Buffer contained 10 mM HEPES, pH 7.2, 10 mM MgCl2, 0.01% Tween 20, 2 mM DTT. Termination Buffer contained 190 mM HEPES, pH 7.2, 0.015% Brij-35, 0.2% Coating Reagent 3 (Caliper Life Sciences, Hopkinton, Mass.), 20 mM EDTA. Separation Buffer contained 100 mM HEPES, pH 7.2, 0.015% Brij-35, 0.1% Coating Reagent 3, 1:200 Coating Reagent 8 (Caliper Life Sciences, Hopkinton, Mass.), 10 mM EDTA and 5% DMSO.
PIM reactions were carried out in a final volume of 10 μL per well in a 384-well plate. A standard enzymatic reaction, initiated by the addition of 5 μL 2×ATP and test compound to 5 μL of 2× enzyme and FAM-peptide, contained 20 pM PIM-1, 50 pM PIM-2, or 55 pM PIM-3, 1 μM FAM-peptide, and 10 μM ATP, in Reaction Buffer. After 90 minutes of incubation at room temperature, the phosphorylation reaction was stopped by the addition of 10 μL Termination Buffer. The product and substrate in each independent reaction were separated on a 12-sipper microfluidic chip (Caliper Life Sciences, Hopkinton, Mass.) run on a Caliper LC3000® (Caliper Life Sciences, Hopkinton, Mass.). The separation of product and substrate was optimized by choosing voltages and pressure using Caliper's Optimizer software (Hopkinton, Mass.). […] The product and substrate fluorophore were excited at 488 nm and detected at 530 nm. Substrate conversion was calculated from the electropherogram using HTS Well Analyzer software (Caliper Life Sciences, Hopkinton, Mass.). Ki values for the test compound were calculated.

As a reminder, the Ki is the equilibrium dissociation constant of an inhibitor or competing ligand from its target. A lower Ki goes with tighter binding.

Chain of Pim-1 (P11309 whole entry): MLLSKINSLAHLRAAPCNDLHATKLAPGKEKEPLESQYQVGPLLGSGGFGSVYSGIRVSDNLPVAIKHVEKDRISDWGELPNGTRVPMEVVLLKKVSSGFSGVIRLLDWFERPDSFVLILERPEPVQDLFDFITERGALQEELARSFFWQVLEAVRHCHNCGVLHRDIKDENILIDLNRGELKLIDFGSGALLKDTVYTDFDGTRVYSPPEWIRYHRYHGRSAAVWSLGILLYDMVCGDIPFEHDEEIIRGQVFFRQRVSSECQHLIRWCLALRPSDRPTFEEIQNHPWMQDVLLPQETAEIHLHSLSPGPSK

In the case of `N[C@@H]1CN(c2cccc(-c3n[nH]c4cnc(-c5cccnc5)cc34)n2)CC[C@@H]1F` (relative stereo) [Example 452, cis-4-fluoro-1-(6-(5-(pyridin-3-yl)-1H-pyrazolo[3,4-c]pyridin-3-yl)pyridin-2-yl)piperidin-3-amine], the Ki came to 0.046 nM.

Take `N[C@@H]1CN(c2cccc(-c3n[nH]c4cnc(-c5cccnc5)cc34)n2)CC[C@H]1F` (relative stereo) [Example 453, trans-4-fluoro-1-(6-(5-(pyridin-3-yl)-1H-pyrazolo[3,4-c]pyridin-3-yl)pyridin-2-yl)piperidin-3-amine]: affinity was put at a Ki of 0.296 nM.

`CCn1cc(-c2cc3c(-c4cccc(N5CC[C@@H](F)[C@H](N)C5)n4)n[nH]c3cn2)cn1` (relative stereo) [Example 462, trans-1-(6-(5-(1-ethyl-1H-pyrazol-4-yl)-1H-pyrazolo[3,4-c]pyridin-3-yl)pyridin-2-yl)-4-fluoropiperidin-3-amine] showed a Ki of 0.55 nM.

On to `CCn1cc(-c2cc3c(-c4cccc(N5CC[C@H](F)[C@H](N)C5)n4)n[nH]c3cn2)cn1` (relative stereo) [Example 465, cis-1-(6-(5-(1-ethyl-1H-pyrazol-4-yl)-1H-pyrazolo[3,4-c]pyridin-3-yl)pyridin-2-yl)-4-fluoropiperidin-3-amine], for which the Ki is 0.063 nM.

Compound `N[C@H]1CCCC(Nc2cccc(-c3n[nH]c4cnc(-c5cccnc5)cc34)n2)C1` (stereo in doubt) [Example 245, (1S,3S)—N1-(6-(5-(pyridin-3-yl)-1H-pyrazolo[3,4-c]pyridin-3-yl)pyridin-2-yl)cyclohexane-1,3-diamine] displayed a Ki of 0.0079 nM.

In turn, `Cc1n[nH]c2cnc(-c3cccnc3)cc12` [Example 101, 3-methyl-5-(pyridin-3-yl)-1H-pyrazolo[3,4-c]pyridine] displayed a Ki of 190 nM.

For `Cc1n[nH]c2cnc(-c3cn[nH]c3)cc12` [Example 102, 3-methyl-5-(1H-pyrazol-4-yl)-1H-pyrazolo[3,4-c]pyridine], the Ki was 302 nM.

`Cc1n[nH]c2cnc(-c3ccn[nH]3)cc12` [Example 103, 3-methyl-5-(1H-pyrazol-5-yl)-1H-pyrazolo[3,4-c]pyridine] showed a Ki of 1300 nM.

Compound `N[C@H]1CCCN(Cc2n[nH]c3cnc(-c4cccnc4)cc23)C1` [Example 104, (S)-1-((5-(pyridin-3-yl)-1H-pyrazolo[3,4-c]pyridin-3-yl)methyl)piperidin-3-amine] gave a Ki of 3000 nM.

`N[C@@H]1CCCN(Cc2n[nH]c3cnc(-c4cccnc4)cc23)C1` [Example 105, (R)-1-((5-(pyridin-3-yl)-1H-pyrazolo[3,4-c]pyridin-3-yl)methyl)piperidin-3-amine] had a Ki of 3400 nM.

For `NC1CCN(Cc2n[nH]c3cnc(-c4cccnc4)cc23)CC1` [Example 106, 1-((5-(pyridin-3-yl)-1H-pyrazolo[3,4-c]pyridin-3-yl)methyl)piperidin-4-amine], the Ki was 1400 nM.

As for `N[C@H]1CCCN(Cc2n[nH]c3cnc(-c4cn[nH]c4)cc23)C1` [Example 107, (S)-1-((5-(1H-pyrazol-4-yl)-1H-pyrazolo[3,4-c]pyridin-3-yl)methyl)piperidin-3-amine], affinity was put at a Ki of 3000 nM.

Consider `NC1CCN(Cc2n[nH]c3cnc(-c4cn[nH]c4)cc23)CC1` [Example 108, l-((5-(1H-pyrazol-4-yl)-1H-pyrazolo[3,4-c]pyridin-3-yl)methyl)piperidin-4-amine], for which the Ki turned out to be 1100 nM.

Compound `c1cncc(-c2cc3c(CNC4CCNCC4)n[nH]c3cn2)c1` [Example 109, N-((5-(pyridin-3-yl)-1H-pyrazolo[3,4-c]pyridin-3-yl)methyl)piperidin-4-amine] registered a Ki of 3800 nM.

`Cc1n[nH]c2cnc(-c3cncc(N4CCC(N)CC4)n3)cc12` [Example 110, 1-(6-(3-methyl-1H-pyrazolo[3,4-c]pyridin-5-yl)pyrazin-2-yl)piperidin-4-amine] yielded a Ki of 5.8 nM.

For the compound `N[C@H]1CCCN(Cc2n[nH]c3cnc(-c4cn[nH]c4)cc23)C1` [Example 111, (S)-1-((5-(1H-pyrazol-4-yl)-1H-pyrazolo[3,4-c]pyridin-3-yl)methyl)piperidin-3-amine], the Ki was found to be 4000 nM.

In turn, `Cc1n[nH]c2cnc(-c3cnccc3N3CCC[C@H](N)C3)cc12` [Example 112, (S)-1-(3-(3-methyl-1H-pyrazolo[3,4-c]pyridin-5-yl)pyridin-4-yl)piperidin-3-amine] had a Ki of 3500 nM.

For the compound `c1cncc(-c2cc3c(CNCC4CCNCC4)n[nH]c3cn2)c1` [Example 113, 1-(piperidin-4-yl)-N-((5-(pyridin-3-yl)-1H-pyrazolo[3,4-c]pyridin-3-yl)methyl)methanamine], the affinity corresponds to a Ki of 3200 nM.

Consider `Cc1n[nH]c2cnc(-c3cnn(C4COC4)c3)cc12` [Example 114, 3-methyl-5-(1-(oxetan-3-yl)-1H-pyrazol-4-yl)-1H-pyrazolo[3,4-c]pyridine], for which the affinity corresponds to a Ki of 844 nM.

As to `Cc1n[nH]c2cnc(-c3cncnc3)cc12` [Example 115, 3-methyl-5-(pyrimidin-5-yl)-1H-pyrazolo[3,4-c]pyridine], the Ki was found to be 3500 nM.

With `Cc1n[nH]c2cnc(-c3cnccn3)cc12` [Example 118, 3-methyl-5-(pyrazin-2-yl)-1H-pyrazolo[3,4-c]pyridine], affinity was put at a Ki of 620 nM.

As to `Cc1n[nH]c2cnc(-c3cnccc3N3CCC[C@@H](N)C3)cc12` [Example 119, (R)-1-(3-(3-methyl-1H-pyrazolo[3,4-c]pyridin-5-yl)pyridin-4-yl)piperidin-3-amine], affinity was put at a Ki of 1100 nM.

`Cc1n[nH]c2cnc(-c3cncc(N4CCC[C@H](N)C4)n3)cc12` [Example 120, (S)-1-(6-(3-methyl-1H-pyrazolo[3,4-c]pyridin-5-yl)pyrazin-2-yl)piperidin-3-amine]: affinity was put at a Ki of 4.78 nM.

In turn, `Cc1n[nH]c2cnc(-c3cncc(N4CCC[C@@H](N)C4)n3)cc12` [Example 121, (R)-1-(6-(3-methyl-1H-pyrazolo[3,4-c]pyridin-5-yl)pyrazin-2-yl)piperidin-3-amine] came in with a Ki of 6.91 nM.

`Cc1n[nH]c2cnc(-c3cncc(F)c3)cc12` [Example 123, 5-(5-fluoropyridin-3-yl)-3-methyl-1H-pyrazolo[3,4-c]pyridine] returned a Ki of 737 nM.

Compound `NC(=O)c1cccc(-c2n[nH]c3cnc(-c4cccnc4)cc23)c1` [Example 125, 3-(5-(pyridin-3-yl)-1H-pyrazolo[3,4-c]pyridin-3-yl)benzamide] gave a Ki of 307 nM.

The compound `FC(F)(F)c1cccc(-c2n[nH]c3cnc(-c4cccnc4)cc23)c1` [Example 126, 5-(pyridin-3-yl)-3-(3-(trifluoromethyl)phenyl)-1H-pyrazolo[3,4-c]pyridine] displayed a Ki of 15.9 nM.

Consider `Cc1n[nH]c2cnc(-c3cnn(C)c3)cc12` [Example 127, 3-methyl-5-(1-methyl-1H-pyrazol-4-yl)-1H-pyrazolo[3,4-c]pyridine], for which the Ki came to 261 nM.

In turn, `NC1CCN(c2ccncc2-c2cc3c(-c4ccccc4F)n[nH]c3cn2)CC1` [Example 128, 1-(3-(3-(2-fluorophenyl)-1H-pyrazolo[3,4-c]pyridin-5-yl)pyridin-4-yl)piperidin-4-amine] had a Ki of 1500 nM.

Compound `NC[C@@H]1CCN(c2ccncc2-c2cc3c(-c4ccccc4F)n[nH]c3cn2)C1` [Example 130, (S)-(1-(3-(3-(2-fluorophenyl)-1H-pyrazolo[3,4-c]pyridin-5-yl)pyridin-4-yl)pyrrolidin-3-yl)methanamine] yielded a Ki of 1500 nM.

For `Fc1cccc(-c2n[nH]c3cnc(-c4cccnc4)cc23)n1` [Example 131, 3-(6-fluoropyridin-2-yl)-5-(pyridin-3-yl)-1H-pyrazolo[3,4-c]pyridine], the affinity corresponds to a Ki of 13.1 nM.

With `O=c1cccc(-c2n[nH]c3cnc(-c4cccnc4)cc23)[nH]1` [Example 132, 6-(5-(pyridin-3-yl)-1H-pyrazolo[3,4-c]pyridin-3-yl)pyridin-2(1H)-one], affinity was put at a Ki of 130 nM.

As to `Cn1cc(-c2cc3c(-c4ccccc4)n[nH]c3cn2)cn1` [Example 133, 5-(1-methyl-1H-pyrazol-4-yl)-3-phenyl-1H-pyrazolo[3,4-c]pyridine], the Ki came out at 5.57 nM.

In turn, `N#CCc1n[nH]c2cnc(-c3cccnc3)cc12` [Example 134, 2-(5-(pyridin-3-yl)-1H-pyrazolo[3,4-c]pyridin-3-yl)acetonitrile] returned a Ki of 826 nM.

As for `Cn1cc(-c2cc3c(CC#N)n[nH]c3cn2)cn1` [Example 135, 2-(5-(1-methyl-1H-pyrazol-4-yl)1H-pyrazolo[3,4-c]pyridin-3-yl)acetonitrile], the Ki was 387 nM.

With `Fc1ccccc1-c1n[nH]c2cnc(-c3cn[nH]c3)cc12` [Example 136, 3-(2-fluorophenyl)-5-(1H-pyrazol-4-yl)-1H-pyrazolo[3,4-c]pyridine], the Ki worked out at 8.69 nM.

In the case of `c1ccc(-c2n[nH]c3cnc(-c4cn[nH]c4)cc23)cc1` [Example 137, 3-phenyl-5-(1H-pyrazol-4-yl)-1H-pyrazolo[3,4-c]pyridine], the Ki amounted to 4.61 nM.
